{"source": "patent US11142518B2", "about": "“6-pyrimidin-isoindole derivative as ERK1/2 inhibitor” (OTSUKA PHARMACEUTICAL CO., LTD., priority 2017, dated 2021)", "key": {"[1]": {"experiment": "Solubility determinations in purified water and buffers", "assay_type": "physicochemical", "settings": "for solubility at 24 h: 18 °C, read-out: Measured solubilities (mg/ml), bound; for solubility at 24 h / Measured solubilities (mg/ml), value in brackets / Measured solubilities (mg/ml), bound: 18-23° C., t = 24 h", "experimental": "The solubilities of crystalline form B and the amorphous form of the compound of formula (1) were determined in purified water and buffers at the same concentration up to 24 h stir time at 18 to 23° C.\nThe samples of the compound of formula (1) (50 mg) were each suspended in purified water (2 mL) or the appropriate buffer and stirred at ambient temperature (18-23° C.) for 20 to 24 h. After this time the slurries were centrifuged, diluted if appropriate by HPLC sample diluent (acetonitrile/water, 1/1, v/v) and analysed by HPLC peak area. The measured values were compared against a relevant calibration curve for the compound of formula (1). The approximate solubilities were calculated and compensation factors were applied for the appropriate dilution factors and % w/w assays. The dilution factor ensured that the peak area values fell within the desired calibration curve ranges.\nThe plug of solid that remained in the centrifuge tube was dried in vacuum oven and analysed by XRPD.\nThe preparations of the buffers used in the study are described below:\npH 1.2—Mix 50 mL of 0.2M potassium chloride solution with 85 mL of 0.2M hydrochloric acid solution.\npH 2—Mix 50 mL of 0.2M potassium chloride solution with 13 mL of 0.2M hydrochloric acid solution.\npH 3—Mix 100 mL of 0.1M potassium hydrogen phthalate with 44.6 mL of 0.1M hydrochloric acid solution.\npH 4—Mix 100 mL of 0.1M potassium hydrogen phthalate with 0.2 mL of 0.1M hydrochloric acid solution.\npH 5—Mix 100 mL of 0.1M potassium hydrogen phthalate with 45.2 mL of 0.1M sodium hydroxide solution.\npH 6—Mix 100 mL of 0.1M potassium dihydrogen orthophosphate with 11.2 mL of 0.1M sodium hydroxide solution.\npH 7—Mix 100 mL of 0.1M potassium dihydrogen orthophosphate with 58.2 mL of 0.1M sodium hydroxide solution.\npH 8—Mix 100 mL of 0.1M potassium dihydrogen orthophosphate with 93.4 mL of 0.1M sodium hydroxide solution."}, "[2]": {"experiment": "Solubility determinations in non-aqueous solvents", "assay_type": "physicochemical", "settings": "for solubility at 72 h: organic solvent or mixture, thermodynamic from solid, read-out: Estimated maximum solubilities (mg/ml), at 18 to 23° C.", "experimental": "Form B of Compound (1), prepared as described in Example 3, was charged to the appropriate solvent (2 ml) at intervals of approximately 1 hour. The solutions were purposefully saturated and allowed to stir over 72 h at 18 to 23° C. After this time, the suspensions were centrifuged, their supernatants were sampled, diluted accordingly and the peak areas of the corresponding analytes were measured by HPLC and compared against those of the standard calibrants. The approximate solubilities were calculated and solubilities were physically checked on an anhydrous solvent free basis to confirm that the results were consistent.\nThe saturated solutions were centrifuged and 100 μl of the clarified supernatant was added to 250 ml volumetric (ethanol) or 100 ml volumetrics (remainder) and made to volume with sample diluent. The diluted samples were then analysed by HPLC peak area and the estimated maximum solubilities were calculated and are reported in the table below.\nTo confirm the estimated solubilities were of the right order of magnitude solutions were prepared up to the estimated maximum measured concentrations and the mixtures were stirred overnight under the same conditions to confirm dissolution."}, "[3]": {"test_system": "Human melanoma cell line A375", "experiment": "Anti-proliferative activity (Alamar Blue)", "assay_type": "cell-based", "settings": "A-375, 96 h, A375 cells, 4 days incubation", "experimental": "The anti-proliferative activities of the compound of the invention was determined by measuring the ability of the compound of formula (1) to inhibit growth in the Human melanoma cell line A375.\nCell proliferation was determined by measuring the conversion of rezasurin (Alamar Blue) to resorufin in reponse to mitochondrial activity (Nociari, M. M, Shalev, A., Benias, P., Russo, C. Journal of Immunological Methods 1998, 213, 157-167). A375 cells (American Type Culture Collection, Teddington, UK) were grown in Dulbecco's Modified Eagle Medium+10% FBS. Each well of a black 96-well flat-bottomed plate was seeded with 2×10^3 cells in 200 μl of complete culture medium one day before the compound treatment. Cells were incubated with compound in 0.1% (v/v) dimethyl sulfoxide (DMSO) for 4 days before addition of 20 μl Alamar blue. After a further 6 h incubation at 37° C. the plate was read on a Spectramax Gemini reader (Molecular Devices; excitation 535 nm, emission 590 nm). GI50 values were calculated using a sigmoidal dose response equation (Prism GraphPad software, La Jolla, Calif., USA)."}}, "note": "Read-outs that look alike come from different tables or passages of the source."}
{"smiles": "COc1cc(F)cc([C@@H](CO)NC(=O)[C@@H](C)N2Cc3ccc(-c4nc(NC5CCOCC5)ncc4Cl)cc3C2=O)c1", "note": "[(2R)-2-(6-{5-chloro-2-[(oxan-4-yl)amino]pyrimidin-4-yl}-1-oxo-2,3-dihydro-1H-isoindol-2-yl)-N-[(1S)-1-(3-fluoro-5-methoxyphenyl)-2-hydroxyethyl]propanamide]", "values": [{"measurement": "solubility", "setting": "[1]; buffers at pH 1.2 to 8.0, 20.5 °C, pH 1.2, aqueous buffer, thermodynamic from solid, buffers at pH 1.2 to 8.0, read-out: Solubility in buffers (conclusion: practically insoluble)", "value": "< 100", "unit": "µg/mL"}, {"measurement": "solubility at 24 h", "setting": "[1]; pH 1.2 buffer, pH 1.2, simulated gastric fluid, thermodynamic from solid, pH 1.2 Buffer", "value": "≥ 0.1", "unit": "mg/mL"}, {"measurement": "solubility at 24 h", "setting": "[1]; pH 2 buffer, pH 2, simulated gastric fluid, thermodynamic from solid, pH 2 Buffer", "value": "< 0.1", "unit": "mg/mL"}, {"measurement": "solubility at 24 h", "setting": "[1]; pH 3 buffer, pH 3, aqueous buffer, thermodynamic from solid, pH 3 Buffer", "value": "< 0.1", "unit": "mg/mL"}, {"measurement": "solubility at 24 h", "setting": "[1]; pH 4 buffer, pH 4, aqueous buffer, thermodynamic from solid, pH 4 Buffer", "value": "< 0.1", "unit": "mg/mL"}, {"measurement": "solubility at 24 h", "setting": "[1]; pH 5 buffer, pH 5, aqueous buffer, thermodynamic from solid, pH 5 Buffer", "value": "< 0.1", "unit": "mg/mL"}, {"measurement": "solubility at 24 h", "setting": "[1]; pH 6 buffer, pH 6, aqueous buffer, thermodynamic from solid, pH 6 Buffer", "value": "< 0.1", "unit": "mg/mL"}, {"measurement": "solubility at 24 h", "setting": "[1]; pH 7 buffer, pH 7, aqueous buffer, thermodynamic from solid, pH 7 Buffer", "value": "< 0.1", "unit": "mg/mL"}, {"measurement": "solubility at 24 h", "setting": "[1]; pH 8 buffer, pH 8, aqueous buffer, thermodynamic from solid, pH 8 Buffer", "value": "< 0.1", "unit": "mg/mL"}, {"measurement": "solubility at 24 h", "setting": "[1]; purified water, water, thermodynamic from solid, Purified water", "value": "< 0.1", "unit": "mg/mL"}, {"measurement": "solubility at 72 h", "setting": "[2]; PEG 400, 18 °C", "value": 229, "unit": "mg/mL"}, {"measurement": "solubility at 72 h", "setting": "[2]; ethanol, 18 °C", "value": 337, "unit": "mg/mL"}, {"measurement": "solubility at 72 h", "setting": "[2]; glycerol, 18 °C", "value": 5, "unit": "mg/mL"}, {"measurement": "solubility at 72 h", "setting": "[2]; propylene glycol, 18 °C", "value": 289, "unit": "mg/mL"}]}
{"smiles": "COc1cc(F)cc([C@@H](CO)NC(=O)[C@@H](C)N2Cc3ccc(-c4nc(NC5CCOCC5)ncc4Cl)cc3C2=O)c1", "note": "[Amorphous Form of the Compound of Formula (1)] [(2R)-2-(6-{5-chloro-2-[(oxan-4-yl)amino]pyrimidin-4-yl}-1-oxo-2,3-dihydro-1H-isoindol-2-yl)-N-[(1S)-1-(3-fluoro-5-methoxyphenyl)-2-hydroxyethyl]propanamide]", "values": [{"measurement": "Measured solubilities (mg/ml), value in brackets", "setting": "[1]; Purified water", "value": "(0.0234 mg/ml"}, {"measurement": "Measured solubilities (mg/ml), value in brackets", "setting": "[1]; pH 1.2 Buffer", "value": "(0.1249 mg/ml"}, {"measurement": "Measured solubilities (mg/ml), value in brackets", "setting": "[1]; pH 2 Buffer", "value": "(0.0226 mg/ml"}, {"measurement": "Measured solubilities (mg/ml), value in brackets", "setting": "[1]; pH 3 Buffer", "value": "(0.0257 mg/ml"}, {"measurement": "Measured solubilities (mg/ml), value in brackets", "setting": "[1]; pH 4 Buffer", "value": "(0.0418 mg/ml"}, {"measurement": "Measured solubilities (mg/ml), value in brackets", "setting": "[1]; pH 5 Buffer", "value": "(0.0268 mg/ml"}, {"measurement": "Measured solubilities (mg/ml), value in brackets", "setting": "[1]; pH 6 Buffer", "value": "(0.0149 mg/ml"}, {"measurement": "Measured solubilities (mg/ml), value in brackets", "setting": "[1]; pH 7 Buffer", "value": "(0.0136 mg/ml"}, {"measurement": "Measured solubilities (mg/ml), value in brackets", "setting": "[1]; pH 8 Buffer", "value": "(0.0138 mg/ml"}]}
{"smiles": "COc1cc(F)cc([C@@H](CO)NC(=O)[C@@H](C)N2Cc3ccc(-c4nc(NC5CCOCC5)ncc4Cl)cc3C2=O)c1", "note": "[Crystalline Form B of the Compound of Formula (1)] [(2R)-2-(6-{5-chloro-2-[(oxan-4-yl)amino]pyrimidin-4-yl}-1-oxo-2,3-dihydro-1H-isoindol-2-yl)-N-[(1S)-1-(3-fluoro-5-methoxyphenyl)-2-hydroxyethyl]propanamide]", "values": [{"measurement": "Measured solubilities (mg/ml), bound", "setting": "[1]; Purified water", "value": "<0.1", "unit": "mg/mL"}, {"measurement": "Measured solubilities (mg/ml), bound", "setting": "[1]; pH 1.2 Buffer", "value": "<0.1", "unit": "mg/mL"}, {"measurement": "Measured solubilities (mg/ml), bound", "setting": "[1]; pH 2 Buffer", "value": "<0.1", "unit": "mg/mL"}, {"measurement": "Measured solubilities (mg/ml), value in brackets", "setting": "[1]; pH 2 Buffer", "value": "(0.0034 mg/ml"}, {"measurement": "Measured solubilities (mg/ml), bound", "setting": "[1]; pH 3 Buffer", "value": "<0.1", "unit": "mg/mL"}, {"measurement": "Measured solubilities (mg/ml), value in brackets", "setting": "[1]; pH 3 Buffer", "value": "(0.0045 mg/ml"}, {"measurement": "Measured solubilities (mg/ml), bound", "setting": "[1]; pH 4 Buffer", "value": "<0.1", "unit": "mg/mL"}, {"measurement": "Measured solubilities (mg/ml), value in brackets", "setting": "[1]; pH 4 Buffer", "value": "(0.0049 mg/ml"}, {"measurement": "Measured solubilities (mg/ml), bound", "setting": "[1]; pH 5 Buffer", "value": "<0.1", "unit": "mg/mL"}, {"measurement": "Measured solubilities (mg/ml), value in brackets", "setting": "[1]; pH 5 Buffer", "value": "(0.0031 mg/ml"}, {"measurement": "Measured solubilities (mg/ml), bound", "setting": "[1]; pH 6 Buffer", "value": "<0.1", "unit": "mg/mL"}, {"measurement": "Measured solubilities (mg/ml), value in brackets", "setting": "[1]; pH 6 Buffer", "value": "(0.0027 mg/ml"}, {"measurement": "Measured solubilities (mg/ml), bound", "setting": "[1]; pH 7 Buffer", "value": "<0.1", "unit": "mg/mL"}, {"measurement": "Measured solubilities (mg/ml), value in brackets", "setting": "[1]; pH 7 Buffer", "value": "(0.0017 mg/ml"}, {"measurement": "Measured solubilities (mg/ml), bound", "setting": "[1]; pH 8 Buffer", "value": "<0.1", "unit": "mg/mL"}, {"measurement": "Measured solubilities (mg/ml), value in brackets", "setting": "[1]; pH 8 Buffer", "value": "(0.0020 mg/ml"}]}
{"smiles": "COc1cc(F)cc([C@@H](CO)NC(=O)[C@@H](C)N2Cc3ccc(-c4nc(NC5CCOCC5)ncc4Cl)cc3C2=O)c1", "note": "[compound of formula (1), (2R)-2-(6-{5-chloro-2-[(oxan-4-yl)amino]pyrimidin-4-yl}-1-oxo-2,3-dihydro-1H-isoindol-2-yl)-N-[(1S)-1-(3-fluoro-5-methoxyphenyl)-2-hydroxyethyl]propanamide]", "values": [{"measurement": "GI50", "setting": "[3]", "value": 3.4, "unit": "nM"}, {"measurement": "Solubility in ethanol, PEG 400 and propylene glycol compared with water", "setting": "[2]; ethanol, PEG 400 and propylene glycol than in water", "value": "significantly greater solubility"}]}
